Results on one compound are retold here after paper PMC10313047, “During heat stress in Myxococcus xanthus, the CdbS PilZ domain protein, in concert with two PilZ-DnaK chaperones, perturbs chromosome organization and accelerates cell death” (PLOS Genetics, 2023).

In the test the target is T1, His6-CdbS (Myxococcus xanthus, UniProt Q1D4C1).
T1 construct: gene MXAN_4328; full-length stand-alone PilZ protein (PilZ domain residues 7-82), N-terminal His6 tag (pET28a, pMS007), made in E. coli Arctic Express (DE3) RP
The experiment in a line: bio-layer interferometry, streptavidin sensor, equilibrium one-site fit. In kind it is binding. Conditions: labelled compound (biotinylated c-di-GMP immobilised on sensor); 50 mM Tris-HCl pH 7, 150 mM NaCl, 10% glycerol, 0.02% Tween-20.

T1 sequence (Q1D4C1 entry or part of it): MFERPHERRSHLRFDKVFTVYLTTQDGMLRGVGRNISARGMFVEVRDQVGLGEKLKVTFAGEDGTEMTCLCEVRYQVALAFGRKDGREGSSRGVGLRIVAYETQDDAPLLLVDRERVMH

In the case of `Nc1nc2c(ncn2[C@@H]2O[C@@H]3COP(=O)(O)O[C@H]4[C@@H](O)[C@H](n5cnc6c(=O)[nH]c(N)nc65)O[C@@H]4COP(=O)(O)O[C@H]3[C@H]2O)c(=O)[nH]1` [c-di-GMP], the Kd entry was “His6-CdbS^R9A did not detectably bind c-di-GMP”.
